Square brackets hold non-standard residues; d marks the D form. Peptide text beside a SMILES is read from it. ξ: configuration not given here. ξOrn = NCCCC(N)C(=O)O
Legend:
Homo sapiens [1] = species on record: Homo sapiens; assay: Selectivity ratio of Ki for displacement of [3H]propionyl-pNPY from human Y2 receptor expressed in CHO cells to Ki for displacement of [3H]UR-KK200 from human Y4 receptor expressed in CHO cells co-expressing Gqi5-mtAEQ; format: cell-based
[2] = biological target: T1, Neuropeptide Y receptor type 4 (Homo sapiens, UniProt P50391); assay: Agonist activity at human Y4 receptor expressed in CHO cells co-expressing Gqi5-mtAEQ assessed as intracellular calcium mobilization measured for 43 secs in presence of coelenterazine by aequorin-reporter gene based luminescence assay; format: functional, cell-based; details: read-out: EC50
[3] = biological target: T1, Neuropeptide Y receptor type 4; assay: Displacement of [3H]UR-KK200 from human Y4 receptor expressed in CHO cells co-expressing Gqi5-mtAEQ measured after 90 mins by scintillation counting analysis; format: cell-based
[4] = biological target: T1, Neuropeptide Y receptor type 4; assay: Agonist activity at human Y4R expressed in HEK293T cells co-expressing ARRB2 assessed as induction of beta-arrestin2 recruitment measured for 40 mins by D-luciferin based luminescence assay; format: cell-based, HEK-293T
Homo sapiens [5] = species on record: Homo sapiens; assay: Selectivity ratio of Ki for displacement of [3H]propionyl-pNPY from human Y5 receptor expressed in human HEC1B cells to Ki for displacement of [3H]UR-KK200 from human Y4 receptor expressed in CHO cells co-expressing Gqi5-mtAEQ; format: cell-based
[6] = biological target: T2, Neuropeptide Y receptor type 2 (Homo sapiens, UniProt P49146); assay: Displacement of [3H]propionyl-pNPY from human Y2 receptor expressed in CHO cells measured after 2 hrs by microbeta liquid scintillation counting analysis; format: cell-based
T2 sequence (P49146 whole entry): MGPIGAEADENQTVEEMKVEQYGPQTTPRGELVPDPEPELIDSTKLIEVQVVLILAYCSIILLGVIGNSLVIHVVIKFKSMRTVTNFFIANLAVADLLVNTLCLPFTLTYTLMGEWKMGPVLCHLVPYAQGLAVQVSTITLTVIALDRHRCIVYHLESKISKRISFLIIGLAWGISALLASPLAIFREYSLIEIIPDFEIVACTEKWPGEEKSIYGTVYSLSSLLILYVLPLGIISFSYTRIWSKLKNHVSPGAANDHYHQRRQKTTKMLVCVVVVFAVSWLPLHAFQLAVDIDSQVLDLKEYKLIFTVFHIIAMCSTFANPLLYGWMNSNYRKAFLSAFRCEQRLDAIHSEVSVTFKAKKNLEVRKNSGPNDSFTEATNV

[7] = biological target: T1, Neuropeptide Y receptor type 4; assay: Agonist activity at human Y4R expressed in HEK293T cells co-expressing ARRB1 assessed as induction of beta-arrestin1 recruitment measured for 40 mins by D-luciferin based luminescence assay; format: cell-based, HEK-293T; details: read-out: EC50
Homo sapiens [8] = species on record: Homo sapiens; assay: Selectivity ratio of Ki for displacement of [3H]UR-MK299 from Y1 receptor in human SK-N-MC cells to Ki for displacement of [3H]UR-KK200 from human Y4 receptor expressed in CHO cells co-expressing Gqi5-mtAEQ; format: cell-based
[9] = biological target: T3, Neuropeptide Y receptor type 5 (Homo sapiens, UniProt Q15761); assay: Displacement of [3H]propionyl-pNPY from human Y5 receptor expressed in human HEC1B cells; format: cell-based
T3 sequence (Q15761 whole entry): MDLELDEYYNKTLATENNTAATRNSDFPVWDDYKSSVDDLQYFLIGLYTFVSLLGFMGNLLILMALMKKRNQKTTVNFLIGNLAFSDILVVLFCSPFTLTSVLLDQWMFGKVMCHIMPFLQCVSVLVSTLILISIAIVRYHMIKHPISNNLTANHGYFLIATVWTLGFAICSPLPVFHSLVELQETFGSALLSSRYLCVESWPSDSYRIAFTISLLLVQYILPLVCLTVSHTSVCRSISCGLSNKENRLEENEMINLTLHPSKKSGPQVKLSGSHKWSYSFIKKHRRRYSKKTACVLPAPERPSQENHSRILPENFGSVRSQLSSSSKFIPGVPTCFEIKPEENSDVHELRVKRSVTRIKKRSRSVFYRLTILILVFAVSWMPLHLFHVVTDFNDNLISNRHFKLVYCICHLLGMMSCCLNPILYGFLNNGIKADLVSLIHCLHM

[10] = biological target: T4, Neuropeptide Y receptor type 1 (Homo sapiens, UniProt P25929); assay: Displacement of [3H]UR-MK299 from Y1 receptor in human SK-N-MC cells; format: cell-based
T4 sequence (P25929 whole entry): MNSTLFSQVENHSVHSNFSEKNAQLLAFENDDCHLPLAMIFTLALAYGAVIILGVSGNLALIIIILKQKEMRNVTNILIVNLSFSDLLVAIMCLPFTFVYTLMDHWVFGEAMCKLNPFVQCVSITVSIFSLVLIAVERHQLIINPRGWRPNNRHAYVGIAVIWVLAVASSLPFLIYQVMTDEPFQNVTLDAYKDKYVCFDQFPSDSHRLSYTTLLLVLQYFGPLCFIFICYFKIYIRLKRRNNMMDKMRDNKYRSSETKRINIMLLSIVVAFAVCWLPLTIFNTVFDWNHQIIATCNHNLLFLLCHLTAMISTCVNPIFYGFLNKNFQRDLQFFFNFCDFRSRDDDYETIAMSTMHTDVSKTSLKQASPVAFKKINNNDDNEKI

T1 sequence (P50391 whole entry): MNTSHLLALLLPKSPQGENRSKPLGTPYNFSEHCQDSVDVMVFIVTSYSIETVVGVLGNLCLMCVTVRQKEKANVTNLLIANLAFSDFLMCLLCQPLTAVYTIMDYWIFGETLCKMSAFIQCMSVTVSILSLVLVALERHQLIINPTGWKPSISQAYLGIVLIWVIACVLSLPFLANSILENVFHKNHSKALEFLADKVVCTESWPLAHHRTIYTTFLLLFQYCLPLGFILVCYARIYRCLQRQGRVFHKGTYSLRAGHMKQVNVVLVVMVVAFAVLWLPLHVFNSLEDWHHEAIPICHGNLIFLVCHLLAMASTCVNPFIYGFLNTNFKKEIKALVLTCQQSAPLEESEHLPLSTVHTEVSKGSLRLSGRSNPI

| Molecule | Ratio Ki (Homo sapiens [1]) | EC50 [2] | Ki ([3]; read-out: Ki) | EC50 ([4]; read-out: EC50) | Ratio Ki (Homo sapiens [5]) | Ki ([6]; read-out: Ki) | Ki ([6]; read-out: pKi (converted)) | EC50 [7] | Ratio Ki (Homo sapiens [8]) | Ki ([9]; read-out: Ki) | Ki ([9]; read-out: pKi (converted)) | Ki ([10]; read-out: Ki) | Ki ([10]; read-out: pKi (converted)) | Ki ([6]; cho, read-out: Ki) | Ki ([10]; sk-n-mc, read-out: Ki) | Ki ([3]; read-out: pKi (converted)) | EC50 ([4]; read-out: pEC50 (converted)) |
| --- | --- | --- | --- | --- | --- | --- | --- | --- | --- | --- | --- | --- | --- | --- | --- | --- | --- |
| CC(C)C[C@H](NC(=O)[C@H](CCCNC(=N)N)NC(=O)[C@H](Cc1ccc(O)cc1)NC(=O)[C@H](CCCNC(=N)N)NC(=O)CCC(=O)O)C(=O)N[C@@H](CCCNC(=N)N)C(=O)N[C@@H](Cc1ccc(O)cc1)C(N)=O | > 750 | 620 nM | 4 nM | 430 nM | > 2500 | > 3000 nM | > 3160 nM | 460 nM | > 75 | > 10000 nM | > 10000 nM | > 300 nM | > 316 nM | – | – | – | – |
| CC(C)C[C@H](NC(=O)[C@@H](N)CCCNC(=N)N)C(=O)N[C@@H](CCCNC(=N)N)C(=O)N[C@@H](Cc1ccc(O)cc1)C(N)=O | > 2900 | 440 nM | 3.4 nM | 170 nM | > 2900 | – | > 10000 nM | 280 nM | > 2900 | > 10000 nM | > 10000 nM | – | > 10000 nM | > 10000 nM | > 10000 nM | – | – |
| CC(=O)N[C@@H](CCCNC(=N)N)C(=O)N[C@@H](Cc1c[nH]c2ccccc12)C(=O)N[C@@H](CCCNC(=N)N)C(=O)N[C@@H](CC(C)C)C(=O)N[C@@H](CCCNC(=N)N)C(=O)N[C@@H](Cc1ccc(O)cc1)C(N)=O | > 710 | 120 nM | 1.4 nM | 35 nM | > 710 | – | > 1000 nM | 67 nM | > 710 | > 1000 nM | > 1000 nM | – | > 1000 nM | > 1000 nM | > 1000 nM | – | – |
| CC(=O)N[C@@H](CCCNC(=N)N)C(=O)NC(CCCN)C(=O)NCC(=O)N[C@@H](Cc1c[nH]c2ccccc12)C(=O)N[C@@H](CCCNC(=N)N)C(=O)N[C@@H](CC(C)C)C(=O)N[C@@H](CCCNC(=N)N)C(=O)N[C@@H](Cc1ccc(O)cc1)C(N)=O (stereo partly specified) (Ac-R[ξOrn]GWRLRY-NH2) | > 230 | 230 nM | 4.3 nM | 140 nM | > 230 | – | > 1000 nM | 170 nM | > 230 | > 1000 nM | > 1000 nM | – | > 1000 nM | > 1000 nM | > 1000 nM | – | – |
| Ac-RFRLRY-NH2 | > 1100 | 550 nM | 8.9 nM | 320 nM | > 110 | – | > 10000 nM | 550 nM | > 110 | > 1000 nM | > 1000 nM | – | > 1000 nM | > 10000 nM | > 1000 nM | 8.71 nM | – |
| Ac-RGRLRY-NH2 | > 130 | 1200 nM | 7.9 nM | 250 nM | > 380 | – | > 1000 nM | 180 nM | > 380 | > 3000 nM | > 3160 nM | > 3000 nM | > 3160 nM | > 1000 nM | – | 7.59 nM | – |
| Ac-RGWRLRY-NH2 | > 1070 | 110 nM | 2.8 nM | 51 nM | > 3600 | > 3000 nM | > 3160 nM | 160 nM | > 360 | > 10000 nM | > 10000 nM | – | > 1000 nM | – | > 1000 nM | – | – |
| Ac-RGYRLRW-NH2 | 26 | 380 nM | 38 nM | 360 nM | > 26 | – | > 1000 nM | 520 nM | > 26 | > 1000 nM | > 1000 nM | – | > 1000 nM | > 1000 nM | > 1000 nM | 30.9 nM | – |
| Ac-RRLRY-NH2 | > 180 | 2500 nM | 17 nM | 510 nM | > 590 | > 3000 nM | > 3160 nM | 600 nM | > 180 | > 10000 nM | > 10000 nM | > 3000 nM | > 3160 nM | – | – | 14.1 nM | – |
| H-WRLRY-NH2 | > 5900 | 250 nM | 1.7 nM | 140 nM | > 590 | – | > 10000 nM | 160 nM | > 590 | > 1000 nM | > 1000 nM | – | > 1000 nM | > 10000 nM | > 1000 nM | 1.62 nM | 148 nM |
